The source of these data is paper PMC7722354, “7-Substituted 2-Nitro-5,6-dihydroimidazo[2,1-b][1,3]oxazines: Novel Antitubercular Agents Lead to a New Preclinical Candidate for Visceral Leishmaniasis” (Journal of Medicinal Chemistry, 2017).

In brackets after ≈: the same amount, converted by molar mass.

Assay [1] concerns Trypanosoma cruzi. As to the kind of experiment: T. cruzi growth inhibition on MRC-5 cells (LMPH). Type of assay: cell-based. Conditions: MRC5.
The test system of assay [2] is Leishmania donovani. As to the kind of experiment: L. don amastigote mouse macrophage-based luciferase assay (CDRI). Conditions: in mouse macrophages, single test (CDRI). Type of assay: cell-based.
The subject of assay [3] is M. tb, strain H37Rv. As to the kind of experiment: LORA minimum inhibitory concentration assay (hypoxic). To be noted: Mycobacterium tuberculosis. Type of assay: cell-based.
The subject of assay [4] is M. tb, strain H37Rv. Nature of the assay: MABA minimum inhibitory concentration assay (aerobic). Type of assay: cell-based, Mycobacterium tuberculosis.
Assay [5] relates to human lung fibroblasts (MRC-5 cells). Nature of the assay: cytotoxicity toward MRC-5 cells (LMPH). Type of assay: cell-based. Conditions: MRC5.
The subject of assay [6] is Leishmania infantum. Nature of the assay: L. inf growth inhibition in mouse macrophages (LMPH). Type of assay: cell-based. To be noted: Macrophage, mean of at least two determinations.
Setting [7] is: Mycobacterium tuberculosis, H37RV, aerobic, read-out: MIC MABA.
Where [8] appears, read: Mycobacterium tuberculosis, H37RV, read-out: MIC MABA, aerobic.

What is called IC50 is the concentration that gives 50% inhibition. What is called MIC is the least concentration at which growth counts as inhibited. Consider `CC1(COCc2ccc(OC(F)(F)F)cc2)CCn2cc([N+](=O)[O-])nc2O1` (stereo not drawn) [compound 21], for which the IC50 in assay [1] was 750 nM; in assay [2] it was 310 nM; in assay [5], above 64000 nM; in assay [6], 300 nM. The MIC worked out at 3.3 µM (≈ 1.28 µg/mL) in assay [3] and 0.55 µM (≈ 0.213 µg/mL) in assay [4] (setting [7]).
With `O=[N+]([O-])c1cn2c(n1)OC(COCc1ccc(OCc3ccccc3)cc1)CC2` (stereo not drawn) [compound 22], in assay [2], the IC50 was 50 nM. This molecule registered an MIC in assay [3] of 3 µM (≈ 1.19 µg/mL).
`CC1(COCc2ccc(OCc3ccccc3)cc2)CCn2cc([N+](=O)[O-])nc2O1` (stereo not drawn) [compound 23] gave a half-maximal inhibitory concentration (IC50) in assay [2] of 280 nM. Moreover, the values for the MIC in assay [3] and in assay [4] (setting [7]) were 1.4 µM (≈ 0.573 µg/mL) and 0.2 µM (≈ 0.0819 µg/mL), respectively.
With `O=[N+]([O-])c1cn2c(n1)OC(COCc1ccc(-c3ccc(F)cc3)cc1)CC2` (stereo not drawn) [compound 25, 7-{[(4′-Fluoro[1,1′-biphenyl]-4-yl)methoxy]methyl}-2-nitro-6,7-dihydro-5H-imidazo[2,1-b][1,3]oxazine], the IC50 was 530 nM in assay [1], 20 nM in assay [2], above 64000 nM in assay [5] and 170 nM in assay [6]. In addition, the figures for the MIC in assay [3] and in assay [4] (setting [7]) were 1.3 µM (≈ 0.498 µg/mL) and 0.08 µM (≈ 0.0307 µg/mL), respectively.
For the molecule `CC1(COCc2ccc(-c3ccc(F)cc3)cc2)CCn2cc([N+](=O)[O-])nc2O1` (stereo not drawn) [compound 27], the IC50 is 840 nM in assay [1], 220 nM in assay [2], above 64000 nM in assay [5] and 1800 nM in assay [6]. The minimum inhibitory concentration (MIC) in assay [3] was 0.61 µM (≈ 0.242 µg/mL); in assay [4] (setting [7]), 0.085 µM (≈ 0.0338 µg/mL).
For the molecule `CC1(COCc2ccc(-c3ccc(OC(F)(F)F)cc3)cc2)CCn2cc([N+](=O)[O-])nc2O1` (stereo not drawn) [compound 29], the MIC stood at 1.4 µM (≈ 0.649 µg/mL) in assay [3] and 0.093 µM (≈ 0.0431 µg/mL) in assay [4] (setting [8]).
`C[C@]1(COCc2ccc(-c3ccc(OC(F)(F)F)cc3)cc2)CCn2cc([N+](=O)[O-])nc2O1` [compound 34, (7R)-7-Methyl-2-nitro-7-({[4′-(trifluoromethoxy)[1,1′-biphenyl]-4-yl]methoxy}methyl)-6,7-dihydro-5H-imidazo[2,1-b][1,3]oxazine] yielded an IC50 in assay [2] of 240 nM. Moreover, the MIC is 1.1 µM (≈ 0.51 µg/mL) in assay [3] and 0.063 µM (≈ 0.0292 µg/mL) in assay [4] (setting [8]).
Take `C[C@@]1(COCc2ccc(-c3ccc(OC(F)(F)F)cc3)cc2)CCn2cc([N+](=O)[O-])nc2O1` [compound 38]: the MIC amounted to 6.8 µM (≈ 3.15 µg/mL) in assay [3] and 0.74 µM (≈ 0.343 µg/mL) in assay [4] (setting [8]).
Take `O=[N+]([O-])c1cn2c(n1)OC(COc1ccc(OC(F)(F)F)cc1)CC2` (stereo not drawn) [compound 39]: the midpoint of inhibition in assay [2], the IC50, lay at 40 nM. Moreover, the figures for the MIC in assay [3] and in assay [4] (setting [8]) were 4.7 µM (≈ 1.69 µg/mL) and 5.2 µM (≈ 1.87 µg/mL), respectively.
Molecule `O=[N+]([O-])c1cn2c(n1)OC(COc1ccc(OCc3ccccc3)cc1)CC2` (stereo not drawn) [compound 45] displayed an IC50 in assay [2] of 20 nM. The MIC in assay [3] and in assay [4] (setting [8]) was above 128 µM each time.
In the case of `CC1(COc2ccc(OCc3ccccc3)cc2)CCn2cc([N+](=O)[O-])nc2O1` (stereo not drawn) [compound 47], half-maximal inhibition in assay [2] (IC50) required 120 nM. In addition, the MIC was above 128 µM in assay [3] and 0.44 µM (≈ 0.174 µg/mL) in assay [4] (setting [7]).
Turning to `CC1(COc2ccc(-c3ccc(F)cc3)cc2)CCn2cc([N+](=O)[O-])nc2O1` (stereo not drawn) [compound 52], the IC50 is 350 nM in assay [1], 200 nM in assay [2], above 64000 nM in assay [5] and 340 nM in assay [6]. Further, the figures for the MIC in assay [3] and in assay [4] (setting [7]) were 1.4 µM (≈ 0.537 µg/mL) and 0.085 µM (≈ 0.0326 µg/mL), respectively.
The molecule `O=[N+]([O-])c1cn2c(n1)OC(COc1ccc(-c3ccc(OC(F)(F)F)cc3)cc1)CC2` (stereo not drawn) [compound 53] showed an IC50 in assay [2] of 60 nM. In addition, the MIC was determined as 0.73 µM (≈ 0.318 µg/mL) in assay [3] and 0.08 µM (≈ 0.0348 µg/mL) in assay [4] (setting [8]).
In the same order, the values of `CC1(COc2ccc(-c3ccc(OC(F)(F)F)cc3)cc2)CCn2cc([N+](=O)[O-])nc2O1` (stereo not drawn) [compound 54] are 520 nM, 1.3 µM (≈ 0.584 µg/mL) and 0.11 µM (≈ 0.0494 µg/mL).
As to `CC1(COc2ccc(-c3ccc(F)nc3)cc2)CCn2cc([N+](=O)[O-])nc2O1` (stereo not drawn) [compound 56], the IC50 in assay [1] is 300 nM; in assay [2], 120 nM; in assay [5], above 64000 nM; in assay [6], 160 nM. The MIC is 2.7 µM (≈ 1.04 µg/mL) in assay [3] and 0.29 µM (≈ 0.111 µg/mL) in assay [4] (setting [7]).
`O=[N+]([O-])c1cn2c(n1)OC(COc1ccc(-c3ccc(F)cc3)cn1)CC2` (stereo not drawn) [compound 59, 7-({[5-(4-Fluorophenyl)pyridin-2-yl]oxy}methyl)-2-nitro-6,7-dihydro-5H-imidazo[2,1-b][1,3]oxazine]: inhibition in assay [2] was half-maximal at 10 nM (IC50). Also, the MIC in assay [3] was below 0.25 µM; in assay [4] (setting [8]), 0.02 to 0.04 µM (≈ 0.00741 to 0.0148 µg/mL); in assay [4] (aerobic, read-out: MIC MABA), 0.025 µM (≈ 0.00926 µg/mL).
Consider `CC1(COc2ccc(-c3ccc(F)cc3)cn2)CCn2cc([N+](=O)[O-])nc2O1` (stereo not drawn) [compound 61], for which half-maximal inhibition in assay [2] (IC50) was put at 90 nM. For the same molecule, the results for the MIC in assay [3] and in assay [4] (setting [8]) were 1 µM (≈ 0.384 µg/mL) and 0.17 µM (≈ 0.0653 µg/mL), respectively.
With `CC1(COc2ccc(-c3ccc(F)cc3F)cn2)CCn2cc([N+](=O)[O-])nc2O1` (stereo not drawn) [compound 63], the IC50 was 210 nM in assay [1], above 64000 nM in assay [5] and 110 nM in assay [6]. Besides, the figures for the MIC in assay [3] and in assay [4] (setting [7]) were 2.5 µM (≈ 1.01 µg/mL) and 0.089 µM (≈ 0.0358 µg/mL), respectively.
In the case of `CC1(COc2ccc(-c3ccc(F)cc3)nc2)CCn2cc([N+](=O)[O-])nc2O1` (stereo not drawn) [compound 90], half-maximal inhibition in assay [2] (IC50) was put at 650 nM. Besides, the MIC in assay [3] stood at 3.9 µM (≈ 1.5 µg/mL); in assay [4] (setting [8]), 0.35 µM (≈ 0.135 µg/mL).
